Legend:
[1] = test system: Triticum aestivum; assay: Drought stress greenhouse test Part C, visual scoring vs stressed control plants; type: in vivo; conditions: efficacy range of 3-4 pots
Procedure: Seeds of monocotyledonous and dicotyledonous crop plants were sown in sandy loam in plastic or wood-fiber pots, covered with soil or sand and cultivated in a greenhouse under good growth conditions. The trial plants were treated at the early leaf stage (BBCH10-BBCH13). To assure uniform water supply before commencement of stress, the potted plants were supplied with water by dam irrigation prior to substance application. The inventive compounds were first formulated as wettable powders (WP) or dissolved in a solvent mixture. The further dilution was effected with water supplemented with 0.2% wetting agent (e.g. agrotin). The finished spray liquor was sprayed onto the green parts of the plant at an equivalent water application rate of 600 l/ha. Substance application was followed immediately by stress treatment of the plants. For this purpose, the wood-fiber pots were transferred in plastic inserts in order to prevent them from subsequently drying out too quickly. Drought stress was induced by gradual drying out under the following conditions: “Day”: 14 hours with illumination at 26-30° C. “Night”: 10 hours without illumination at 18-20° C. The duration of the respective stress phases was guided mainly by the condition of the stressed control plants. It was ended (by re-irrigating and transfer to a greenhouse with good growth conditions) as soon as irreversible damage was observed on the stressed control plants. The end of the stress phase was followed by an about 4-7-day recovery phase, during which the plants were once again kept under good growth conditions in a greenhouse. The duration of the recovery phase was guided mainly by when the trial plants had attained a state which enabled visual scoring of potential effects, and was therefore variable. Once this juncture had been reached, the appearance of the plants treated with test substances was recorded in comparison to the stressed control plants by the following categories: [table] For each substance and dosage, 3-4 pots were treated and evaluated. […] BRSNS=Brassica napus TRZAS=Triticum aestivum

[2] = target: T1, phosphatase ABI1 via the co-regulator RCAR11/PYR1 (Arabidopsis thaliana, UniProt O49686+P49597); assay: In vitro inhibition of the phosphatase ABI1 via the co-regulator RCAR11/PYR1, MUP dephosphorylation; type: biochemical; set-up: dose or concentration left out as unconfirmed; conditions: in a solution of DMSO and water; fluorescence at 460 nm
T1 sequence (O49686 1-191): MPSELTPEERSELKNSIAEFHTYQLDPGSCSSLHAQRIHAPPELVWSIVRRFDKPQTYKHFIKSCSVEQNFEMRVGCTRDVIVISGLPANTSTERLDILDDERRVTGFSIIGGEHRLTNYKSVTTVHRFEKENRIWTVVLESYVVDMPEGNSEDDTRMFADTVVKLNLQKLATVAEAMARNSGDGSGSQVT
T1 sequence (P49597 1-434): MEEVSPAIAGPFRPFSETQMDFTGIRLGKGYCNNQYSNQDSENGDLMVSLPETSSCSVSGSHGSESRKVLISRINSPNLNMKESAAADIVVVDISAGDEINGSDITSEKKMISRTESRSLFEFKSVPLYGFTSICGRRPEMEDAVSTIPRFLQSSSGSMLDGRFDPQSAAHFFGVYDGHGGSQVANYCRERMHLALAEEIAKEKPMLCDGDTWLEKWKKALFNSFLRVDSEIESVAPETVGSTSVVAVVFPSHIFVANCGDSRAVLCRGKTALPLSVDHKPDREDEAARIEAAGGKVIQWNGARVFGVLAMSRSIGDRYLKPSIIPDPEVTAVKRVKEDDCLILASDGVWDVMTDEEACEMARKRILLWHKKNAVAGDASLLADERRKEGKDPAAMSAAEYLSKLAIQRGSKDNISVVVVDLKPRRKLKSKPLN
How it was run: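 Arabidopsis ABI1 (0.15 μg/well) with RCAR11/PYR1 (0.30 μg/well) in Tris-HCl pH 8, NaCl, MnCl2, DTT, Tween20; MUP substrate, 20 min at 35 °C, fluorescence ex 340/em 460 nm. Compounds tested at 5 mM in DMSO/water, optionally pre-treated with porcine liver esterase; inhibition banded ≥90/70/50/30%.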

[3] = test system: Triticum aestivum; assay: Drought stress greenhouse test Part A, visual scoring vs stressed control plants; type: in vivo; set-up: key: 0: no effect; 10: slight positive effect; 20: clear positive effect; 30: strong positive effect; conditions: average score of 3 pots
Procedure: (§1) Seeds of monocotyledonous and dicotyledonous crop plants were sown in sandy loam in plastic pots, covered with soil or sand and cultivated in a greenhouse under good growth conditions. The trial plants were treated at the early leaf stage (BBCH10-BBCH13). To assure uniform water supply before commencement of stress, the potted plants were supplied with water by dam irrigation prior to substance application.
(§2) The inventive compounds formulated in the form of wettable powders (WP) were sprayed onto the green parts of the plants as an aqueous suspension at an equivalent water application rate of 600 l/ha with addition of 0.2% wetting agent (e.g. agrotin). Substance application was followed immediately by stress treatment of the plants.
(§3) Drought stress was induced by gradual drying out under the following conditions:
“Day”: 14 hours with illumination at ˜26-30° C. “Night”: 10 hours without illumination at ˜18-20° C.
(§4) The duration of the respective stress phases was guided mainly by the condition of the stressed control plants. It was ended (by re-irrigating and transfer to a greenhouse with good growth conditions) as soon as irreversible damage was observed on the stressed control plants.
(§5) The end of the stress phase was followed by an about 4-7-day recovery phase, during which the plants were once again kept under good growth conditions in a greenhouse. The duration of the recovery phase was guided mainly by when the trial plants had attained a state which enabled visual scoring of potential effects, and was therefore variable.
(§6) Once this juncture had been reached, the appearance of the plants treated with test substances was recorded in comparison to the stressed control plants by the following categories:
In order to rule out any influence on the effects observed by any fungicidal or insecticidal action of the test compounds, it was additionally ensured that the tests proceeded without fungal infection or insect infestation.
In each test, for each crop and dosage, plants in 3 pots were treated and evaluated separately. The values reported in Tables A-1 to A-2 below for the effects obtained are averages from the scores obtained.
(§7) BRSNS=Brassica napus TRZAS=Triticum aestivum

[4] = test system: Triticum aestivum; assay: Drought stress test on wheat Part D, reduction in damage intensity from fresh weights; type: in vivo; conditions: efficacy = reduction in damage intensity (fresh weight) under drought stress, 250 g/ha, at least three repeats
Description: Wheat grains were sown in a standardized number in sandy loam soil plastic pots, covered with soil or sand and grown in a greenhouse under good growth conditions. Pots with uneven degrees of emergence were excluded prior to the start of the trial. The treatment with test substances was effected at the early leaf stage (BBCH10-BBCH13). To assure uniform water supply, the potted plants were supplied with water by dam irrigation prior to substance application. The inventive compounds were first formulated as wettable powders (WP) or dissolved in a solvent mixture. The further dilution was effected with water supplemented with 0.2% wetting agent (e.g. agrotin). The finished spray liquor was sprayed onto the green parts of the plant at an equivalent water application rate of 600 l/ha. Substance application was followed immediately by stress treatment of the plants. Drought stress was induced by gradual drying out under the following conditions: “Day”: 14 hours with illumination at 26-30° C. “Night”: 10 hours without illumination at 18-20° C. The duration of the respective stress phases was guided mainly by the condition of the stressed control plants. It was ended (by re-irrigating and transfer to a greenhouse with good growth conditions) as soon as irreversible damage was observed on the stressed control plants. The end of the stress phase was followed by an about 7-day recovery phase, during which the plants were once again kept under good growth conditions in a greenhouse. The exact duration of the recovery phase was variable for reasons related to the trial. At the end of the recovery phase, the fresh weights of the plant parts above ground were determined. By comparison with unstressed control plants which were kept under good growth conditions over the entire duration of the trial, percentage damage intensities were first calculated from the fresh weight values. The reduction in damage intensity resulting from treatment with test substance was then calculated by the following formula: [formula] EF: Efficacy DIs: Damage intensity of the stressed control plants DIt: Damage intensity of the stressed plants treated with test compound The values reported in table D-1 below are results from at least three repeats. BRSNS=Brassica napus TRZAS=Triticum aestivum

[5] = test system: Triticum aestivum; assay: Drought stress greenhouse test Part B, visual scoring vs stressed control plants; type: in vivo; conditions: spray application 250 g/ha, efficacy range of 2-3 pots
Procedure: as §1, §2, §3
“Day”: 14 hours with illumination at 26-30° C. “Night”: 10 hours without illumination at 18-20° C.
as §4
as §5, with “and is” for “and was”
as §6
For each substance and dosage, 2-3 pots were treated and evaluated.
as §7

Row | ABI1 inhibition [2] | SMILES | Effect (TRZAS) ([1]; spray application 250 g/ha) | also measured
1 | ++++ (inhibition≧90%) | COC(=O)CCN1C(=O)CCc2cc(NS(=O)(=O)Cc3ccc(Br)cc3)ccc21 [A51-172] | 10-20 | –
2 | – | COC(=O)CCN1C(=O)CC(C)(C)c2cc(NS(=O)(=O)Cc3ccc(Br)cc3)ccc21 [B51-172] | – | Effect (TRZAS) ([1]; spray application 25 g/ha): 10-20
3 | ++++ (inhibition≧90%) | COCCN1C(=O)CCc2cc(NS(=O)(=O)Cc3ccc(Cl)cc3)ccc21 [A38-165] | 10-30 | –
4 | – | CCC1(C)CC(=O)N(CCOC)c2ccc(NS(=O)(=O)Cc3ccc(F)cc3)cc21 (stereo not drawn) [F7-158] | 10-20 | –
5 | – | CC1(C)CC(=O)N(CC(F)(F)F)c2ccc(NS(=O)(=O)c3ccc(C#N)cc3)cc21 [B2-45] | – | Effect (TRZAS) ([3]; spray application 25 g/ha): 20
6 | – | CC1(C)CC(=O)N(CC(F)(F)F)c2ccc(NS(=O)(=O)CCc3ccc(Cl)cc3)cc21 [B2-291] | – | Effect (TRZAS) ([3]; spray application 25 g/ha): 20; Effect (TRZAS) ([3]; spray application 250 g/ha): 30
7 | – | CCC1(C)CC(=O)N(CCOC)c2ccc(NS(=O)(=O)Cc3cccc(Cl)c3)cc21 (stereo not drawn) [F7-166] | 10-20 | –
8 | – | COC(=O)CN1C(=O)CCc2cc(NS(=O)(=O)Cc3cccc(C#N)c3)ccc21 [A50-182] | 10-20 | –
9 | – | COCCN1C(=O)CC2(CCCCC2)c2cc(NS(=O)(=O)Cc3ccc(C(F)(F)F)cc3)ccc21 [I5-178] | 10-30 | –
10 | – | COC(=O)CCN1C(=O)CC(C)(C)c2cc(NS(=O)(=O)Cc3ccc(C)cc3)ccc21 [B51-152] | 10-20 | EF [%] (TRZAS) [4]: 16%
11 | – | O=C1CC2(CCC2)c2cc(NS(=O)(=O)Cc3ccc(Cl)cc3)ccc2N1CC1CC1 [J3-165] | 10-20 | –
12 | – | COC(=O)CN1C(=O)CC(C)(C)c2cc(NS(=O)(=O)Cc3ccc(Cl)cc3)ccc21 [B50-165] | 10-20 | –
13 | ++++ (inhibition≧90%) | Cc1ccc(CS(=O)(=O)Nc2ccc3c(c2)CCC(=O)N3CC2CC2)cc1 [A19-152] | – | Effect (TRZAS) ([3]; spray application 25 g/ha): 20
14 | – | CCC1(C)CC(=O)N(CCOC)c2ccc(NS(=O)(=O)Cc3ccc(Cl)cc3)cc21 (racemic) [F7-165] | – | Effect (TRZAS) ([1]; spray application 25 g/ha): 10-20
15 | ++++ (inhibition≧90%) | N#Cc1ccc(CS(=O)(=O)Nc2ccc3c(c2)CCC(=O)N3CC2CC2)cc1 [A19-181] | – | Effect (TRZAS) [5]: 10-20
16 | +++ (90%>inhibition≧70%) | Cc1ccc(CS(=O)(=O)Nc2ccc3c(c2)CCC(=O)N3CCSC(F)(F)F)cc1 [A42-152] | – | Effect (TRZAS) ([1]; spray application 25 g/ha): 10-20
17 | – | CCC1(C)CC(=O)N(CCOC)c2ccc(NS(=O)(=O)Cc3ccccc3)cc21 (stereo not drawn) [F7-151] | – | Effect (TRZAS) ([1]; spray application 25 g/ha): 10-20
18 | – | CCC1(C)CC(=O)N(CC2CC2)c2ccc(NS(=O)(=O)Cc3ccc(F)cc3)cc21 (stereo not drawn) [F3-158] | – | Effect (TRZAS) ([1]; spray application 25 g/ha): 10-20
19 | ++++ (inhibition≧90%) | COC(=O)CN1C(=O)CCc2cc(NS(=O)(=O)Cc3ccc(C)cc3)ccc21 [A50-152] | 10-20 | –
20 | – | COCCN1C(=O)CC2(CCCCC2)c2cc(NS(=O)(=O)Cc3cccc(Cl)c3)ccc21 [I5-166] | 10-20 | –
21 | – | CC1(C)CC(=O)N(CC(F)(F)F)c2ccc(NS(=O)(=O)Cc3ccc(Cl)cc3)cc21 [B2-165] | – | Effect (TRZAS) ([3]; spray application 25 g/ha): 20
22 | +++ (90%>inhibition≧70%) | COC(=O)CN1C(=O)CCc2cc(NS(=O)(=O)Cc3ccc([N+](=O)[O-])cc3)ccc21 [A50-175] | – | Effect (TRZAS) ([1]; spray application 25 g/ha): 10-20
23 | – | COC(=O)CN1C(=O)CCc2cc(NS(=O)(=O)Cc3cccc(Br)c3)ccc21 [A50-173] | – | Effect (TRZAS) ([1]; spray application 25 g/ha): 10-20
24 | – | CCOC(=O)CCN1C(=O)CC(C)(C)c2cc(NS(=O)(=O)Cc3ccc(C#N)cc3)ccc21 [B52-181] | 10-20 | EF [%] (TRZAS) [4]: 14%
25 | +++ (90%>inhibition≧70%) | O=C1CCc2cc(NS(=O)(=O)Cc3ccc(F)cc3)ccc2N1CC(F)F [A1-158] | – | Effect (TRZAS) [5]: 10-20
26 | – | O=C1CCc2cc(NS(=O)(=O)Cc3ccc(C(F)(F)F)cc3)ccc2N1CC12CC3CC(CC(C3)C1)C2 [A46-178] | – | Effect (TRZAS) ([1]; spray application 25 g/ha): 20-30
27 | ++++ (inhibition≧90%) | Cc1ccc(CS(=O)(=O)Nc2ccc3c(c2)CCC(=O)N3CC2CC2)cc1F [A19-357, N-[1-(Cyclopropylmethyl)-2-oxo-1,2,3,4-tetrahydroquinolin-6-yl]-1-(3-fluoro-4-methylphenyl)methanesulfonamide] | – | Effect (TRZAS) [5]: 10-20
28 | ++ (70%>inhibition≧50%) | N#Cc1cccc(CS(=O)(=O)Nc2ccc3c(c2)CCC(=O)N3CC2CC2)c1 [A19-182] | – | Effect (TRZAS) ([3]; spray application 25 g/ha): 20; Effect (TRZAS) ([3]; spray application 250 g/ha): 20-30

Source: patent US20170027172A1, “USE OF SUBSTITUTE OXO TETRAHYDROQUINOLINE SULFONAMIDES OR SALTS THEREOF FOR RAISING STRESS TOLERANCE OF PLANTS” (BAYER CROPSCIENCE AKTIENGESELLSCHAFT, priority 2014, published 2017)
